Results: ChEMBL document CHEMBL1144542, “Design of endoperoxides with anti-Candida activity” (Bioorg Med Chem, 2007)

How the values were obtained:
Candida albicans = test: Growth inhibition of Candida albicans JRW#5; type: functional, organism-based
Erythrocyte = test: Hemolytic activity in human erythrocytes at 1 mM; type: functional
CHO [1] = test: Cytotoxicity against CHO cells at 0.1 mM after 3 days relative to control; type: cell-based, Cricetulus griseus; conditions: chinese hamster, 72 h, 100 µM
CHO [2] = test: Cytotoxicity against CHO cells at 1.0 mM after 3 days relative to control; type: cell-based, Cricetulus griseus; conditions: chinese hamster, 72 h, 1000 µM

| SMILES | IC50 (Candida albicans) [µM] | Activity (Erythrocyte) [%] | Activity (CHO [1]) | Activity (CHO [2]) |
| --- | --- | --- | --- | --- |
| c1ccc([C@H]2OO[C@@H](c3ccccc3)[C@@H]3O[C@@H]32)cc1 | 500 |  |  |  |
| C1CCC([C@@]23COOC[C@@H]2O3)CC1 | 500 |  |  |  |
| C[C@H]1OO[C@@H](COC(=O)CC23CC4CC(CC(C4)C2)C3)[C@H]2O[C@H]21 | 250 |  |  |  |
| C[C@@H]1[C@H](O)[C@@H](C)/C=C/C=C/C=C/C=C/C=C/C=C/C=C/[C@H](O[C@@H]2O[C@H](C)[C@@H](O)[C@H](N)[C@@H]2O)C[C@@H]2O[C@](O)(C[C@@H](O)C[C@@H](O)[C@H](O)CC[C@@H](O)C[C@@H](O)CC(=O)O[C@H]1C)C[C@H](O)[C@H]2C(=O)O [AMPHOTERICIN B] | < 0.5 |  |  |  |
| C1=C[C@@H](CC2CCCCC2)OOC1 | 125 |  |  |  |
| CCCCCCC[C@H]1OO[C@@H](CCC)[C@@H]2O[C@@H]21 | 500 | 45 |  |  |
| CCCCCCC[C@H]1OOC[C@@H]2O[C@@H]21 | 63 | 33 |  |  |
| C[C@@H]1C=C[C@H](CO)OO1 | 16 | 0 | Active |  |
| CCCCCCC1=CCOOC1 | 250 | 61 |  |  |
| C[C@H]1OO[C@@H](CO)[C@@H]2O[C@@H]21 | > 1000 |  |  |  |
| C[C@H]1OO[C@@H](CCCO)[C@@H]2O[C@@H]21 | > 1000 |  |  |  |
| C1C2CC3CC1CC([C@@H]1OO[C@H](C45CC6CC(CC(C6)C4)C5)[C@H]4O[C@H]41)(C2)C3 | > 1000 |  |  |  |
| c1ccc(COC[C@@H]2OO[C@H](COCc3ccccc3)[C@H]3O[C@H]32)cc1 | 250 |  |  |  |
| C1CCC(C[C@H]2OOC[C@H]3O[C@@H]23)CC1 | 125 |  |  |  |
| C1C2CC3CC1CC(C[C@H]1OOC[C@@H]4O[C@@H]41)(C2)C3 | 125 |  |  |  |
| CCCCCCC[C@H]1OOC[C@@H]2O[C@@]21CCCCCC | > 1000 |  |  |  |
| C1=C[C@@H](C23CC4CC(CC(C4)C2)C3)OOC1 | 31 | 100 |  |  |
| C[C@@H]1C=C[C@H](COCc2ccccc2)OO1 | 250 |  |  |  |
| CCCCCC[C@@]12COOC[C@@H]1O2 | 500 | 31 |  |  |
| C[C@H]1OO[C@@H](COC(=O)C23CC4CC(CC(C4)C2)C3)[C@@H]2O[C@@H]21 | 250 |  |  |  |
| CCCCCCC[C@@H]1C=CCOO1 | 63 | 60 |  |  |
| C1CCC(C[C@H]2OOC[C@@H]3O[C@@H]32)CC1 | 125 |  |  |  |
| C1C2CC3CC1CC(C[C@H]1OOC[C@H]4O[C@@H]14)(C2)C3 | 125 |  |  |  |
| C1=C[C@H](C23CC4CC(CC(C4)C2)C3)OO[C@@H]1C12CC3CC(CC(C3)C1)C2 | > 1000 |  |  |  |

| SMILES | IC50 (Candida albicans) [µM] | Activity (Erythrocyte) [%] | Activity (CHO [1]) | Activity (CHO [2]) |
| --- | --- | --- | --- | --- |
| C[C@H]1OO[C@@H](COC(=O)CC23CC4CC(CC(Br)(C4)C2)C3)[C@H]2O[C@H]21 | > 1000 |  |  |  |
| C[C@H]1OO[C@@H](COC(=O)C23CC4CC(CC(C4)C2)C3)[C@H]2O[C@H]21 | 125 |  |  |  |
| c1ccc(COC[C@@H]2OO[C@H](COCc3ccccc3)[C@@H]3O[C@@H]32)cc1 | 63 | 1 | Active |  |
| C[C@H]1OO[C@@H](COCc2ccccc2)[C@H]2O[C@H]21 | 63 |  |  |  |
| C[C@@H]1C=C[C@H](COC(=O)CC23CC4CC(CC(Br)(C4)C2)C3)OO1 | 250 |  |  |  |
| C1=C(C23CC4CC(CC(C4)C2)C3)COOC1 | 63 |  |  |  |
| CCCCCCC[C@H]1OOC[C@H]2O[C@@]12CCCCCC | > 1000 |  |  |  |
| C1C2CC3CC1CC([C@@]14COOC[C@@H]1O4)(C2)C3 | 125 |  |  |  |
| CCCCCCC[C@@H]1C=C[C@H](CCC)OO1 | 250 | 86 |  |  |
| C1=C[C@@H](COCc2ccccc2)OO[C@H]1COCc1ccccc1 | 16 | 2 |  | Active |
| C[C@H]1OO[C@@H](COCc2ccccc2)[C@@H]2O[C@@H]21 (single isomer, unassigned) | 125 |  |  |  |
| CCCCCCC[C@H]1OO[C@@H](CCC)[C@H]2O[C@H]21 | 500 | 25 |  |  |
| C[C@@H]1C=C[C@H](COC(=O)CC23CC4CC(CC(C4)C2)C3)OO1 | 125 |  |  |  |
| C1=C(C2CCCCC2)COOC1 | 63 |  |  |  |
| C1=C[C@H](c2ccccc2)OO[C@@H]1c1ccccc1 | 31 |  | Active | Active |
| C1=C[C@@H](CC23CC4CC(CC(C4)C2)C3)OOC1 | 125 |  |  |  |
| C1C2CC3CC1CC([C@H]1OOC[C@@H]4O[C@@H]41)(C2)C3 | 31 | 41 |  |  |
| C[C@H]1OO[C@@H](COC(=O)CC23CC4CC(CC(Br)(C4)C2)C3)[C@@H]2O[C@@H]21 | > 1000 |  |  |  |
| C[C@@H]1C=C[C@H](CCCO)OO1 | 250 |  |  |  |
| CCCCCCC[C@H]1OOC[C@H]2O[C@@H]12 | 63 |  |  |  |
| C[C@@H]1C=C[C@H](COC(=O)C23CC4CC(CC(C4)C2)C3)OO1 | 125 |  |  |  |
| CCCCCCC[C@H]1OOCC=C1CCCCCC | 250 |  |  |  |
| C[C@H]1OO[C@@H](COC(=O)CC23CC4CC(CC(C4)C2)C3)[C@@H]2O[C@@H]21 | > 1000 |  |  |  |
| C1CC2OOC1C1OC21 (stereo not drawn) | 16 | 0 | Active | Active |
